In US20240360133A1, “FUSED TRICYCLIC COMPOUND, PREPARATION METHOD THEREFOR AND APPLICATION THEREOF IN MEDICINE” (Jiangsu Hengrui Pharmaceuticals Co., Ltd., priority 2020, published 2024):

Each compound was assayed against T1, human TLR7 (Homo sapiens, UniProt Q9NYK1) (assay: Inhibitory effect on human TLR7 activation pathway (HEK-Blue hTLR7 SEAP reporter)). Settings: HEK-Blue hTLR7 cells, 1 μM resiquimod, 20 h, SEAP OD620.
T1 construct: host or cells: HEK-Blue hTLR7 (HEK293)
T1 sequence (Q9NYK1 27-1049): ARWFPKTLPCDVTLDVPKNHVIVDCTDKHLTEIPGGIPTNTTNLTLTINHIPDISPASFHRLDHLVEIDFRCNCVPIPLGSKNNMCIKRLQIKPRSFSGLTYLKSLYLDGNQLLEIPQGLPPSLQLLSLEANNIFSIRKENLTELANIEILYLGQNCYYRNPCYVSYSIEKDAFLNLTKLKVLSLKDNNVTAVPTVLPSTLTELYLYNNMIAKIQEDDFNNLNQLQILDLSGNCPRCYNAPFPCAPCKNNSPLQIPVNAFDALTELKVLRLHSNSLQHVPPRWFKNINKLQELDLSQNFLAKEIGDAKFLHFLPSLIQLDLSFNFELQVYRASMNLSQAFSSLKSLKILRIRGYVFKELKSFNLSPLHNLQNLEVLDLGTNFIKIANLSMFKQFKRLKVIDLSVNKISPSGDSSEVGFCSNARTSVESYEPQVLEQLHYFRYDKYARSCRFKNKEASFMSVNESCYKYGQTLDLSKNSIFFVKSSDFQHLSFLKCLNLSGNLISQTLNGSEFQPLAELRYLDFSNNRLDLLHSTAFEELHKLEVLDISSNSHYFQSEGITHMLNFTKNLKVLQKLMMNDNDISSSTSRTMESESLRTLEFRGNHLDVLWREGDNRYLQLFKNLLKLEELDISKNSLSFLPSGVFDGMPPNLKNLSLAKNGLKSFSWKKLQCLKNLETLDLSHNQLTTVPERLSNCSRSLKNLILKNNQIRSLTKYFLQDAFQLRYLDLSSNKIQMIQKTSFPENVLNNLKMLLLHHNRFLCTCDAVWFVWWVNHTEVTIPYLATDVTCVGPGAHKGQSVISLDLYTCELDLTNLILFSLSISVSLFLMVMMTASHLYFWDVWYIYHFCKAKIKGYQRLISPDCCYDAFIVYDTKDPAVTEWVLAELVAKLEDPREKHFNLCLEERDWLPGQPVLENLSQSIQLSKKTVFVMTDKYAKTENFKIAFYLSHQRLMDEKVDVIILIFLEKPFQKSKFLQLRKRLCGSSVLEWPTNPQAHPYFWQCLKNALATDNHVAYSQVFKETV
Assay type: cell-based
Method: • 1. HEK-Blue™ hTLR7 cell (Invivogen) • 2. Resiquimod (R848, Invivogen) • 3. Alkaline phosphatase detection medium (Quanti-Blue Detection, Invivogen) • 4. Blasticidin (Invivogen) • 5. Zeocin (Invivogen) • 6. Normocin (Invivogen) • 7. DMEM/HIGH Glucose (GE Healthcare) • 8. Fetal bovine serum (FBS, Gibco) • 9. Phosphate-buffered saline (Shanghai BasalMedia Technologies Co., Ltd.) • 10. Sterile purified water (made in-house by Shanghai Hengrui) • 11. 15 mL centrifuge tube (Corning) • 12. %-well formulating plate (Corning) • 13. 96-well flat-bottom cell culture plate (Corning) • 14. Constant-temperature cell incubator (Thermo scientific) • 15. Constant-temperature incubator (Shanghai Yiheng Scientific Instruments Co., Ltd.) • 16. PHERAstar FS microplate reader (BMG Labtech)
HEK-Blue™ hTLR7 cells were purchased from Invivogen. These cells are HEK293 cells transfected with the human Toll-like receptor 7 (TLR7) gene and the secreted alkaline phosphatase reporter gene (SEAP). The alkaline phosphatase reporter gene (SEAP) is under the regulation of the IFN—P minimal promoter comprising 5 NF-kB and AP-1 binding sites. Upon activation of TLR7 with an agonist, SEAP secretion is induced via downstream NF-kB and AP-1. After addition of an antagonist compound, the pathway described above is inhibited, and SEAP secretion is reduced. The activity of the compounds for the TLR7 pathway was evaluated by measuring OD620 through the SEAP substrate.
20 mM test compounds dissolved in 100% DMSO were serially diluted with 100% DMSO to 2000, 400, 80, 16, 3.2, 0.64, 0.128, 0.0256 μM, with blank wells containing 100% DMSO. The compounds and 100% DMSO were then 20-fold diluted in DMEM/HIGH glucose media containing 10% inactivated FBS (complete media, the same applies below). Resiquimod was diluted to 10 μM with sterile water. The 10 μM resiquimod dilution in sterile water was added to a 96-well cell culture plate at 20 μL/well. The above compounds diluted in complete media and 100% DMSO were then added at 20 μL/well to wells containing resiquimod, 20 μL of sterile water and 20 μL of 100% DMSO diluted in the complete medium were added to negative control wells.
HEK-Blue™ hTLR7 cells were cultured in a DMEM/HIGH glucose medium containing 10% inactivated FBS, 100 μg/mL Normocin, 10 μg/mL blasticidin, and 100 μg/mL Zeocin. Cells that were in a good state of growth and had grown to 70%-80% were collected. The growth medium was discarded, 5-10 mL of PBS pre-heated at 37° C. was added to wash the cells once, and 2-5 mL of pre-heated PBS was added. The cells were cultured at 37° C. for 1-2 min, dispersed by pipetting, transferred to a 15 mL centrifuge tube, and counted, and the cell density was adjusted to 4.8-10′/mL with the complete medium. After density adjustment, 160 μL of the resulting cell suspension was added to the above 96-well cell culture plate to a final number of cells per well of 76,500/well. The final concentration of resiquimod was 1 μM, and the final concentrations of the test compounds were 10,000, 2000, 400, 80, 16, 3.2, 0.64, and 0.128 nM. The cells were cultured in a 37° C., 5% CO2 incubator for 20 h. Then 20 μL of the supernatant was added to 180 μL of the prepared alkaline phosphatase detection medium and incubated in the dark in a constant-temperature incubator at 37° C. for 120 min. Then the OD620 absorbance readings were taken on a microplate reader. The inhibition rate was calculated using the following formula: […]
Inhibition curves were plotted using Graphpad Prism software according to the concentrations of the compounds and the corresponding inhibition rates, and the concentrations of the compounds at which the inhibition rate reached 50%, i.e., IC50 values, were calculated and are shown in Table 1.
With `Cc1cc(-c2[nH]c3cc4c(nc3c2C(C)C)CNCC4)cc(C)n1` [Example 1, 2-(2,6-Dimethylpyridin-4-yl)-3-isopropyl-5,6,7,8-tetrahydro-1H-pyrrolo[3,2-b][1,7]naphthyridine] the IC50 was 7.7 nM. `Cc1cc(-c2[nH]c3cc4c(nc3c2C(C)C)CN(C(C)C)CC4)cc(C)n1` [Example 2, 2-(2,6-Dimethylpyridin-4-yl)-3,6-diisopropyl-5,6,7,8-tetrahydro-1H-pyrrolo[3,2-b][1,7]naphthyridine] gave an IC50 of 29.9 nM. For `Cc1cc(-c2[nH]c3cc4c(nc3c2C(C)C)CN(CCc2ccc(N3CCNCC3)nc2)CC4)cc(C)n1` [Example 4, 2-(2,6-Dimethylpyridin-4-yl)-3-isopropyl-6-(2-(6-(piperazin-4-yl)pyridin-3-yl)ethyl)-5,6,7,8-tetrahydro-1H-pyrrolo[3,2-b][1,7]naphthyridine], the IC50 was 6.8 nM. For `Cc1cc(-c2[nH]c3cc4c(nc3c2C(C)C)CN(Cc2ccc(N3CCNCC3)cn2)CC4)cc(C)n1` [Example 5, 2-(2,6-Dimethylpyridin-4-yl)-3-isopropyl-6-((5-(piperazin-1-yl)pyridin-2-yl)methyl)-5,6,7,8-tetrahydro-1H-pyrrolo[3,2-b][1,7]naphthyridine], the IC50 was 5.7 nM. In the case of `Cc1cc(-c2[nH]c3cc4c(nc3c2C(C)C)CN(CC23CCC(N)(CC2)CC3)CC4)cc(C)n1` [Example 7, 4-((2-(2,6-Dimethylpyridin-4-yl)-3-isopropyl-1,5,7,8-tetrahydro-6H-pyrrolo[3,2-b][1,7]naphthyridin-6-yl)methyl)bicyclo[2.2.2]octyl-1-amine], the IC50 is reported as 7.1 nM. With `Cc1cc(-c2[nH]c3cc4c(nc3c2C(C)C)CN(CC(N)=O)CC4)cc(C)n1` [Example 8, 2-(2-(2,6-Dimethylpyridin-4-yl)-3-isopropyl-1,5,7,8-tetrahydro-6H-pyrrolo[3,2-b][1,7]naphthyridin-6-yl)acetamide] the IC50 was 18.2 nM. Compound `Cc1c(-c2[nH]c3cc4c(nc3c2C(C)C)CNCC4)cn2ncnc2c1C` [Example 9, 2-(7,8-Dimethyl-[1,2,4]triazolo[1,5-a]pyridin-6-yl)-3-isopropyl-5,6,7,8-tetrahydro-1H-pyrrolo[3,2-b][1,7]naphthyridine] has an IC50 of 4.9 nM. `Cc1c(-c2[nH]c3cc4c(nc3c2C(C)C)CN(CC(N)=O)CC4)cn2ncnc2c1C` [Example 10, 2-(2-(7,8-Dimethyl-[1,2,4]triazolo[1,5-a]pyridin-6-yl)-3-isopropyl-1,5,7,8-tetrahydro-6H-pyrrolo[3,2-b][1,7]naphthyridin-6-yl)acetamide] gave an IC50 of 21.5 nM.
